Assay results as given in patent US20250129027A1 (APOGEE PHARMACEUTICALS, INC., priority 2023, published 2025).

Legend:
human recombinant MAGL = human recombinant MAGL (Homo sapiens (Human), UniProt Q99685); experiment: In vitro inhibition of MAGL activity (inhibitor screening kit, 4-nitrophenylacetate); assay type: biochemical; conditions: human recombinant MAGL
Protocol: The inhibitory effect of the compounds on activity of human recombinant MAGL was also studied using a commercial inhibitor screening kit (Cayman Chemicals). In brief, MAGL hydrolyzes 4-nitrophenylacetate resulting in a yellow product, 4-nitrophenol with an absorbance at 405-412 nm, while the inhibitor will inhibit the MAGL activity and thus reduce the yellow signal. The absorbance of the yellow product can be analyzed using the plate reader. Inhibition is calculated as a percentage of the treated sample over the non-treated MAGL control based on the signal values.

human recombinant FAAH = human recombinant FAAH (Homo sapiens (Human), UniProt O00519); experiment: In vitro inhibition of FAAH activity (fluorescent inhibitor screening kit, AMC arachidonoyl amide); assay type: biochemical; conditions: human recombinant FAAH; read-out: Inhibition on FAAH activity (IC50)
Excerpt: The inhibitory effect of compounds of Formula (I-IV) on the activity of human recombinant FAAH was studied using a commercial inhibitor screening kit (Cayman Chemicals, Godlewski et al., 2010 [19]). In brief, FAAH hydrolyzes AMC arachidonoyl amide resulting in the release of the fluorescent product, while the inhibitor will inhibit the FAAH activity and thus reduce the fluorescent signal. The resulting fluorophore can be analyzed using an excitation wavelength of 340-360 nm and an emission wavelength of 450-465 nm by a plate reader (Synergy H1, Biotek). Inhibition is calculated as a percentage of the treated sample over the non-treated control based on the signal values, and where possible, a range of concentrations of compounds was tested to find the IC50 values (i.e. the concentration of compound that inhibited 50% FAAH activity).

Chain of human recombinant MAGL (Q99685 whole entry): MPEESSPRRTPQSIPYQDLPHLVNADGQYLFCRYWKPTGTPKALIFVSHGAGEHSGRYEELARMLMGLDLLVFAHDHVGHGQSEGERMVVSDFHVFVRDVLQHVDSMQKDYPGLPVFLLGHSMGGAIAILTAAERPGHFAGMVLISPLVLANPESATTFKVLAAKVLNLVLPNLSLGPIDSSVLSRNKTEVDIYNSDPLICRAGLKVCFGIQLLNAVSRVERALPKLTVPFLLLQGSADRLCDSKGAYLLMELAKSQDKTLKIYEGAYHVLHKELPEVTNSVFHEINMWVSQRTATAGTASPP
Chain of human recombinant FAAH (O00519 whole entry): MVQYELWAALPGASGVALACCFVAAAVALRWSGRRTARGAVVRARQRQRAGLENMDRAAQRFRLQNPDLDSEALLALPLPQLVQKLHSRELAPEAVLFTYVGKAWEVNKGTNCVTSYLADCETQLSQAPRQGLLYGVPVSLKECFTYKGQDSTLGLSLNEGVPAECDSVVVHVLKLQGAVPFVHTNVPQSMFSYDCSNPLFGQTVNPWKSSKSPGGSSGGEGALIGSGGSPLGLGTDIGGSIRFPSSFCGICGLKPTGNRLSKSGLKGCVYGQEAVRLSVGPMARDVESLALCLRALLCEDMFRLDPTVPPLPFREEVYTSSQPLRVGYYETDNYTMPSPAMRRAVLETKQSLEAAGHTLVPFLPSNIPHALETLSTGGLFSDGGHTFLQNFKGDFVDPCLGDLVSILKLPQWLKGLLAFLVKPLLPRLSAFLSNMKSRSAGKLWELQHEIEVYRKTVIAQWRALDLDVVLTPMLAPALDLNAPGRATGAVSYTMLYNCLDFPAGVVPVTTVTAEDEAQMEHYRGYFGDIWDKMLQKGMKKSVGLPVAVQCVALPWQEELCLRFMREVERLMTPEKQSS

Molecule	IC50 (human recombinant MAGL)	IC50 (human recombinant FAAH)
COc1ccc(OC(=O)NC2CCCCC2)cc1-c1cncc(-c2ccco2)c1 [Example 57, 3-(5-(furan-2-yl)pyridin-3-yl)-4-methoxyphenyl cyclohexylcarbamate]	> 10000 nM	100 to 1000 nM
O=C(NCc1ccccc1)Oc1cccc(-c2cncc(-c3nncs3)c2)c1 [Example 209, 3-(5-(1,3,4-thiadiazol-2-yl)pyridin-3-yl)phenyl benzylcarbamate]	> 10000 nM	~100 nM
COC(=O)c1cncc(-c2cccc(OC(=O)NC3CCCCC3)c2)c1 [Example 12, methyl 5-(3-((cyclohexylcarbamoyl)oxy)phenyl)nicotinate]	> 10000 nM	10 to 100 nM
CSc1ccc(OC(=O)NCc2ccccc2)cc1-c1cncc(-c2nnco2)c1 [Example 188, 3-(5-(1,3,4-oxadiazol-2-yl)pyridin-3-yl)-4-(methylthio)phenyl benzylcarbamate]	> 10000 nM	> 1000 nM
CC1CCC(NC(=O)Oc2cccc(-c3cc(-c4nnco4)ccn3)c2)CC1 (stereo not shown) [Example 261, 3-(4-(1,3,4-oxadiazol-2-yl)pyridin-2-yl)phenyl (4-methylcyclohexyl)carbamate]	> 1000 nM	100 to 1000 nM
CCCCCCCCNC(=O)Oc1ccc(N(C)C)c(-c2cncc(-c3nnco3)c2)c1 [Example 180, 3-(5-(1,3,4-oxadiazol-2-yl)pyridin-3-yl)-4-(dimethylamino)phenyl octylcarbamate]	> 10000 nM	10 to 100 nM
O=C(NC1CCCCC1)Oc1ccc(OC(F)(F)F)c(-c2cncc(-c3ncco3)c2)c1 [Example 89, 3-(5-(oxazol-2-yl)pyridin-3-yl)-4-(trifluoromethoxy)phenyl cyclohexylcarbamate]	> 10000 nM	100 to 1000 nM
O=C(Oc1cccc(-c2cncc(-c3nnco3)c2)c1)N1CCCCC1 [Example 141, 3-(5-(1,3,4-oxadiazol-2-yl)pyridin-3-yl)phenyl piperidine-1-carboxylate]	> 10000 nM	~1000 nM
O=C(NC1CCCCC1)Oc1cccc(-c2cncc(-c3nccs3)c2)c1 [Example 119, 3-(5-(thiazol-2-yl)pyridin-3-yl)phenyl cyclohexylcarbamate]	> 10000 nM	10 to 100 nM
O=C(NCC1CCCCC1)Oc1cccc(-c2cncc(-c3nncs3)c2)c1 [Example 208, 3-(5-(1,3,4-thiadiazol-2-yl)pyridin-3-yl)phenyl (cyclohexylmethyl)carbamate]	> 10000 nM	10 to 100 nM
O=Cc1cncc(-c2cccc(OC(=O)NC3CCCCCC3)c2)c1 [Example 20, 3-(5-formylpyridin-3-yl)phenyl cyclohepylcarbamate]	> 10000 nM	100 to 1000 nM
O=C(Oc1cccc(-c2cncc(-c3nnco3)c2)c1)N1CCC2(CC1)COC2 [Example 153, 3-(5-(1,3,4-oxadiazol-2-yl)pyridin-3-yl)phenyl 2-oxa-7-azaspiro[3.5]nonane-7-carboxylate]	> 10000 nM	1000 to 10000 nM
COc1ccc(OC(=O)NC2CCCC2)cc1-c1cncc(-c2ncco2)c1 [Example 80, 4-methoxy-3-(5-(oxazol-2-yl)pyridin-3-yl)phenyl cyclopentylcarbamate]	> 10000 nM	10 to 100 nM
COc1ccc(OC(=O)NC2CCC(C)CC2)cc1-c1cncc(-c2nnco2)c1 (stereo not shown) [Example 171, 3-(5-(1,3,4-oxadiazol-2-yl)pyridin-3-yl)-4-methoxyphenyl (4-methylcyclohexyl)carbamate]	> 10000 nM	100 to 1000 nM
O=C(NCc1ccccc1)Oc1cccc(-c2cc(-c3nnco3)ccn2)c1 [Example 258, 3-(4-(1,3,4-oxadiazol-2-yl)pyridin-2-yl)phenyl benzylcarbamate]	> 10000 nM	100 to 1000 nM
O=C(NCC1CCCCC1)Oc1cccc(-c2cncc(C(F)(F)F)c2)c1 [Example 31, 3-(5-(trifluoromethyl)pyridin-3-yl)phenyl (cyclohexylmethyl)carbamate]	> 1000 nM	10 to 100 nM
O=C(Nc1cccc2ccccc12)Oc1cccc(-c2cncc(-c3nnco3)c2)c1 [Example 140, 3-(5-(1,3,4-oxadiazol-2-yl)pyridin-3-yl)phenyl naphthalen-1-ylcarbamate]	> 50000 nM	> 100 nM
COc1ccc(OC(=O)NC2CCCCC2)cc1-c1cncc(-c2nccs2)c1 [Example 125, 4-methoxy-3-(5-(thiazol-2-yl)pyridin-3-yl)phenyl cyclohexylcarbamate]	> 10000 nM	100 to 1000 nM
COc1ccc(OC(=O)NC2CCCCCC2)cc1-c1cncc(-c2nnn[nH]2)c1 [Example 255, 3-(5-(1H-tetrazol-5-yl)pyridin-3-yl)-4-methoxyphenyl cycloheptylcarbamate]	> 10000 nM	> 1000 nM

Molecule	IC50 (human recombinant MAGL)	IC50 (human recombinant FAAH)
3-(5-(1,3,4-oxadiazol-2-yl)134 pyridine-3-yl)phenyl heptylcarbamate [Example 129]	> 10000 nM	1 to 10 nM
O=C(NC1CCCCC1)Oc1cccc(-c2cncc(-c3nnco3)c2)c1 [Example 139, 3-(5-(1,3,4-oxadiazol-2-yl)pyridin-3-yl)phenyl cyclohexylcarbamate]	> 50000 nM	10 to 100 nM
COc1ccc(OC(=O)NC2CCCCC2)cc1-c1cncc(-c2nnn[nH]2)c1 [Example 254, 3-(5-(1H-tetrazol-5-yl)pyridin-3-yl)-4-methoxyphenyl cyclohexylcarbamate]	> 10000 nM	> 1000 nM
Cc1cc(OC(=O)NC2CCC(C)CC2)cc(-c2cncc(-c3ncco3)c2)c1 (stereo not shown) [Example 102, 3-methyl-5-(5-(oxazol-2-yl)pyridin-3-yl)phenyl (4-methylcyclohexyl)carbamate]	> 10000 nM	> 1000 nM
O=C(NCc1ccccc1)Oc1cc(F)cc(-c2cncc(-c3nnco3)c2)c1 [Example 196, 3-(5-(1,3,4-oxadiazol-2-yl)pyridin-3-yl)-5-fluorophenyl benzylcarbamate]	~10000 nM	> 1000 nM
COc1ccc(OC(=O)NC2CCCCCC2)cc1-c1cncc(-c2nccs2)c1 [Example 126, 4-methoxy-3-(5-(thiazol-2-yl)pyridin-3-yl)phenyl cycloheptylcarbamate]	> 10000 nM	100 to 1000 nM
O=C(NCc1ccccc1)Oc1cc(O)cc(-c2cncc(-c3nnco3)c2)c1 [Example 162, 3-(5-(1,3,4-oxadiazol-2-yl)pyridin-3-yl)-5-hydroxyphenyl benzylcarbamate]	> 10000 nM	~100 nM
CCCCCCCCNC(=O)Oc1cccc(-c2cncc(C(=O)NN)c2)c1 [Example 25, 3-(5-(hydrazinecarbonyl)pyridin-3-yl)phenyl octylcarbamate]	> 10000 nM	> 1000 nM
COc1cc(OC(=O)NCc2ccccc2)cc(-c2cncc(-c3nnco3)c2)c1 [Example 176, 3-(5-(1,3,4-oxadiazol-2-yl)pyridin-3-yl)-5-methoxyphenyl benzylcarbamate]	> 10000 nM	> 1000 nM
O=C(NCC1CCCCC1)Oc1ccc(O)c(-c2cncc(-c3ncn[nH]3)c2)c1 [Example 227, 3-(5-(1H-1,2,4-triazol-5-yl)pyridin-3-yl)-4-hydroxyphenyl (cyclohexyl methyl) carbamate]	> 10000 nM	100 to 1000 nM
O=C(NCc1ccccc1)Oc1cccc(-c2cncc(-c3nnco3)c2)c1 [Example 135, 3-(5-(1,3,4-oxadiazol-2-yl)pyridin-3-yl)phenyl benzylcarbamate]	> 50000 nM	> 100 nM
O=C(NC1CCCC1)Oc1cccc(-c2cncc(-c3nncs3)c2)c1 [Example 210, 3-(5-(1,3,4-thiadiazol-2-yl)pyridin-3-yl)phenyl cyclopentylcarbamate]	> 10000 nM	~100 nM
CCOC(=O)c1cncc(-c2cccc(OC(=O)NC3CCCCC3)c2)c1 [Example 6, ethyl 5-(3-((cyclohexylcarbamoyl)oxy)phenyl)nicotinate]	> 100 nM	> 100 nM
3-(5-(1,3,4-oxadiazol-2-yl pyridin-3-yl)phenyl pentylcarbamate [Example 127]	> 50000 nM	10 to 100 nM
O=C(NC1CCCCC1)Oc1cccc(-c2cncc(-c3ccc[nH]3)c2)c1 [Example 39, 3-(5-(1H-pyrrol-2-yl)pyridin-3-yl)phenyl cyclohexylcarbamate]	> 10000 nM	100 to 1000 nM
O=C(NC1CCCCCC1)Oc1cccc(-c2cncc(-c3nnco3)n2)c1 [Example 268, 3-(6-(1,3,4-oxadiazol-2-yl)pyrazin-2-yl)phenyl cycloheptylcarbamate]	1000 to 10000 nM	10 to 100 nM
O=C(Oc1cccc(-c2cncc(-c3nnco3)c2)c1)N1C2CCCC1CC2 [Example 150, 3-(5-(1,3,4-oxadiazol-2-yl)pyridin-3-yl)phenyl 8-azabicyclo[3.2.1]octane-8-carboxylate]	> 10000 nM	> 1000 nM
Cc1cc(OC(=O)NCC2CCCCC2)cc(-c2cncc(-c3ncco3)c2)c1 [Example 99, 3-methyl-5-(5-(oxazol-2-yl)pyridin-3-yl)phenyl (cyclohexylmethyl)carbamate]	~10000 nM	100 to 1000 nM
O=C(NC1CCCCC1)Oc1cccc(-c2cncc(-c3nnn[nH]3)c2)c1 [Example 242, 3-(5-(1H-tetrazol-5-yl)pyridin-3-yl)phenyl cyclohexylcarbamate]	> 10000 nM	> 1000 nM
